Tests used:
[1] = system: patients with resistant hypertension; experiment: Urinary albumin to creatinine ratio (renal function); assay type: in vivo, human; details: for Albumin to creatinine ratio, % Change from baseline, Mean: week 10
Description: (§1) Co-primary efficacy endpoints were the changes from baseline through weeks 8 and 10 (i.e., doses of 150 and 300 mg) in trough sitting SBP. Blood pressure was measured at every study visit (baseline and weeks 2, 4, 6, 8 and 10) using standard sphygmomanometry. Secondary variables included 24-hour SBP as measured by ambulatory blood pressure monitoring (ABPM), percentage of patients who achieved SBP goal, trough sitting DBP, and urinary albumin to creatinine ratio. Ambulatory blood pressure monitoring was recorded once before randomization and repeated during the 24 hours immediately preceding the week 10 study visit. Urine samples for determination of albumin to creatinine ratio were collected at screening, baseline and week 10.

[2] = system: patients with resistant hypertension; experiment: 24-hour ambulatory blood pressure monitoring (ABPM) at week 10; assay type: in vivo, human
Description: (§2) In this randomized, double-blind, placebo-controlled, dose-titration study, patients were randomized 2:1 to receive escalating doses of darusentan or placebo once daily in the morning for 10 weeks after completing a 2-week placebo run-in period (FIG. 1). Darusentan was initiated at a dose of 10 mg/day and escalated every 2 weeks at doses of 50, 100 and 150 mg/day until reaching a maximum of 300 mg/day. […] Patients were withdrawn from the study if a subsequent dose reduction was required. After completion of the 10-week treatment period, patients were withdrawn from study medication over a maximum of 2 weeks. This study was approved by an Institutional Review Board/Independent Ethics Committee and conducted in accordance with the principles of Good Clinical Practices and the revised Declaration of Helsinki.
as §1
A nonlinear mixed effect model was used for the analysis of change in blood pressure, with comorbidity status as a covariate. This model used all observed blood pressure measurements with no imputation for missing values. Linear contrast statements were used to test the slope through a given time point to test the effect of the dose administered on that week. Estimates of treatment effect were obtained via least square means. […]

[3] = system: patients with resistant hypertension; experiment: Safety and tolerability assessments in the clinical study; assay type: in vivo, human; details: for Treatment-emergent adverse events, Patients, %: n = 76
Description: as §2
Physical examinations, vital sign measurements, clinical chemistry and hematologic laboratory tests, and electrocardiography were performed at the screening visit and periodically throughout the study. Blood samples were obtained at baseline and at weeks 4 and 10 during study drug treatment to monitor liver function. Additional blood samples were drawn from male patients at baseline and week 10 to assess follicle stimulating hormone, inhibin B, luteinizing hormone and testosterone levels. Male fertility was assessed by analysis of semen samples obtained within 2 weeks before baseline and within 2 weeks before week 10. Adverse events were monitored throughout the study.
(§3) A nonlinear mixed effect model was used for the analysis of change in blood pressure, with comorbidity status as a covariate. This model used all observed blood pressure measurements with no imputation for missing values. Linear contrast statements were used to test the slope through a given time point to test the effect of the dose administered on that week. Estimates of treatment effect were obtained via least square means. Response rates were compared with logistic regression models at each blood pressure measurement with comorbidity status as a covariate; missing values were imputed with last observation carried forward for these models. Safety summaries include all patients who received ≧1 dose of blinded study medication.

[4] = system: patients with resistant hypertension; experiment: Trough/peak sitting blood pressure by standard sphygmomanometry, randomized placebo-controlled dose-titration study; assay type: in vivo, human; details: for Percent of patients achieving SBP goal, Responders, n (%): n = 76
Description: In this randomized, double-blind, placebo-controlled, dose-titration study, 115 patients with resistant hypertension as defined by JNC 7 guidelines were randomized 2:1 to receive escalating doses of darusentan (10, 50, 100, 150 and 300 mg) or placebo once daily for 10 weeks. Darusentan dose was increased every 2 weeks.
Patients (35 to 85 years of age) with resistant hypertension as defined by the JNC 7 guidelines and who were treated with and adhered to full doses of JNC 7 recommended antihypertensives, including a diuretic and two or more antihypertensive medications from different drug classes, defined as (a) ACE inhibitors and angiotensin II receptor blockers, (b) beta-adrenergic receptor blockers, and (c) calcium channel blockers, were eligible to participate in the study. Patients also were required to have an estimated glomerular filtration rate (GFR) ≧30 mL/min/1.73 m^2 during the screening period. Women of childbearing potential were required to have a negative serum pregnancy test at the screening visit and a negative urine pregnancy test at baseline, and they must have agreed to use a reliable double-barrier method of contraception throughout the study and for at least 4 weeks after the last study visit. Patients with an average sitting SBP ≧180 mmHg, […], hemoglobin A1c >10%, hemoglobin concentration <10 g/dL, hematocrit <30%, serum thyroid stimulating hormone concentration >1.5× the upper limit of normal (ULN), or serum alanine aminotransferase (ALT) or aspartate aminotransferase (AST)>2×ULN during the screening period were excluded from the study. […] All patients provided written informed consent.
as §2, §1
as §3, with “medication. […]” for “medication.”

[5] = system: patients with moderate hypertension; details: 10 to 100 mg/day, no other antihypertensive drugs; cited from earlier work

COc1cc(OC)nc(O[C@H](C(=O)O)C(OC)(c2ccccc2)c2ccccc2)n1 [Darusentan, (+)-(S)-2-[(4,6-dimethoxy-2-pyrimidinyl)oxy]-3-methoxy-3,3-diphenylpropionic acid]
Geometric mean albumin to creatinine ratio, Week 10 ([1]; All observed patients, n 65, baseline 12.6): 9.4 mg/g
Albumin to creatinine ratio, % Change from baseline, Mean ([1]; All observed patients): −25.3%
Geometric mean albumin to creatinine ratio, Week 10 ([1]; Baseline ratio >30 mg/g, n 12, baseline 145.4): 73.6 mg/g
Albumin to creatinine ratio, % Change from baseline, Mean ([1]; Baseline ratio >30 mg/g): −49.4%
Geometric mean albumin to creatinine ratio, Week 10 ([1]; Baseline ratio ≦30 mg/g, n 53, baseline 7.2): 5.9 mg/g
Albumin to creatinine ratio, % Change from baseline, Mean ([1]; Baseline ratio ≦30 mg/g): −18.4%
placebo-adjusted reduction in mean 24-hour systolic ABP ([2]; 300 mg): 9.2±2.2 mmHg
decrease in day-time SBP (ABP) ([2]; placebo 2.2±2.4 mmHg): 10.9±1.4 mmHg
decrease in night-time SBP (ABP) ([2]; placebo 3.8±2.7 mmHg): 11.9±1.6 mmHg
patients with elevations in ALT or AST >2×ULN ([3]; 10-week treatment): no
Treatment-emergent adverse events, Patients, % ([3]; Arthralgia): (3) %
Treatment-emergent adverse events, Patients, % ([3]; Diarrhea): (1) %
Treatment-emergent adverse events, Patients, % ([3]; Dizziness): (7) %
Treatment-emergent adverse events, Patients, % ([3]; Gastroenteritis): (5) %
Treatment-emergent adverse events, Patients, % ([3]; Nasopharyngitis): (7) %
Treatment-emergent adverse events, Patients, % ([3]; Sinusitis): (8) %
Treatment-emergent adverse events, Patients, % ([3]; Upper respiratory tract infection): (5) %
patients with decrease in hematocrit reported as adverse event ([3]; all events mild): 2 patients
patients with decrease in hemoglobin reported as adverse event ([3]; all events mild): 2 patients
cases of severe peripheral edema ([3]; darusentan group): one case
serious adverse events considered related to study medication ([3]; darusentan group): None and no drug-related serious adverse events
improvements in trough sitting SBP and DBP, dose relation ([4]; 10 to 300 mg once daily, titrated every 2 weeks): dose dependent
Percent of patients achieving SBP goal, Responders, n (%) ([4]; Week 2 (10 mg)): 23 (30.3) n (%)
Percent of patients achieving SBP goal, Responders, n (%) ([4]; Week 4 (50 mg)): 36 (47.4) n (%)
Percent of patients achieving SBP goal, Responders, n (%) ([4]; Week 6 (100 mg)): 34 (44.7) n (%)
Percent of patients achieving SBP goal, Responders, n (%) ([4]; Week 8 (150 mg)): 32 (42.1) n (%)
Percent of patients achieving SBP goal, Responders, n (%) ([4]; Week 10 (300 mg)): 37 (48.7) n (%)
patients achieving SBP goal (JNC 7) ([4]; end of treatment (week 10), placebo 28%): 49%
effect on SBP and DBP by comparison with placebo [5]: significantly reduce

— patent publication US20090221549A1, “ANTIHYPERTENSIVE THERAPY” (Gilead Colorado, Inc., priority 2006, published 2009)
